What was measured:
cyclin D1 = test: RT-PCR of cyclin D1 mRNA in treated PC-3 cells; type: cell-based, human; conditions: 5 μM, 24 hours
Procedure: (§1) Representative photograph of an experiment repeated thrice. PC-3 cells were treated 24 hours with either 15 μM for compounds 6, 7, 7a, 8, 9, 10 or 5 μM for compound KED-4-69 (compound 6a) before RNA extraction and RT-PCR amplification.
(§2) Reverse Transcriptase-polymerase Chain Reaction (RT-PCR). From PC-3 cells incubated 24 hours with either 15 μM of compound 6, 7, 7a, 8, 9, 10 or 5 μM of KED-4-69 (compound 6a), RNA was extracted with TRIzol solution (Invitrogen, Carlsbad, Calif.) and genes of interest were amplified using 500 ng of total RNA reverse-transcribed to cDNA using a Superscript II kit (Invitrogen) with random hexamers. Human-specific primers were designed using the Primer Quest program and purchased from Integrated DNA Technologies, Inc. (Coralville, Iowa). Their sequences and product band sizes are: cyclin D1 forward primer 5′-[…]-3′ (SEQ ID NO:1), cyclin D1 reverse primer 5′-[…]-3′ (SEQ ID NO:2) (475 bp) and GAPDH forward primer: 5′-CCA […]-3′ (SEQ ID NO:3), GAPDH reverse primer: 5′-TCTAGACGGCAG GTCAGGTCCACC-3′ (SEQ ID NO:4) (598 bp). PCRs were initiated at 94° C. for 2 min, followed by 28 cycles of 94° C. for 1 min, 1 min annealing temperature, 72° C. for 1 min, and final extension at 72° C. for 5 min. The annealing temperature for cyclin D1 and GAPDH was 60° C. Primers and PCR conditions for RASSF1A are used as described by Rong et al. (Oncogene. 2004, 23, 8216-8230). After amplification, PCR products were separated on 1.5% agarose gels and visualized by ethidium bromide fluorescence using the Fuji LAS-1000 Imager. Images were captured and imported to Adobe Photoshop. Band intensities were quantified by using ImageJ software (NIH, Bethesda, Md.).
(§3) It has been reported that mRNA levels of RASSF1A correlate to its protein expression levels (Rong et al. Oncogene, 2004, 23: 8216-8230). To investigate the effects of the synthetic compounds on RASSF1A and cyclin D1 expression, levels of the respective mRNAs in treated cells compared to control were analyzed (FIG. 3). […] Because overexpression of cyclin D1 is associated with tumorigenicity and proliferation in a variety of tumors, including prostate cancers, this downregulation provides a cancer treatment method (Chen, Y. et al. Oncogene. 1998, 16, 1913-1920; Musgrove, E. A. et al. Proc. Natl. Acad. Sci. USA. 1994, 91, 8022-8026).

RASSF1A = test: RT-PCR of RASSF1A mRNA in treated PC-3 cells; type: cell-based, human; conditions: 5 μM, 24 hours
Procedure: as §1, §2, §3

[1] = system: DNA methyltransferase (DNMT); test: DNA methyltransferase activity assay (EpiQuik kit, nuclear extracts of treated PC-3 cells); type: cell-based, human; conditions: 72 hours, 5 μM (FIG. 7 legend; method says 2 μM)
Procedure: Black bars: PC-3 cells were treated 72 hours with either mahanine or compound 6a at 5 μM or compound 6, 7, 7a, 8, or 9 at 15 μM and then assayed for DNMT activity using the DNMT activity kit from Epigentek. Data are mean of three independent experiments ±SEM. Grey bars: Densitometry from RT-PCR blot where the amount of RASSF1A mRNA re-expressed by mahanine treatment is normalized to 100%.
DNA methyltransferase activity assay. PC-3 cells were plated in complete growth media, treated with either mahanine or compound 6a at 2 μM or compound 6, 7, 7a, 8, 9, 10 at 15 μM for 3 days and then harvested. Nuclear extracts were prepared according to manufacturer's protocol (Nuclear extraction kit, Epigentek). DNMT activity was measured using an EpiQuik DNA methyltransferase activity assay kit (Epigentek). Results were expressed as percent DNMT activity compared to the DMSO control as 100%.
The levels of DNMT activity in treated versus untreated prostate cancer cells were measured using a DNMT assay kit from Epigentek. […] These reduced DNMT activities correlate with the pattern of RASSF1A induction described above (FIG. 7, grey bars). The data imply that inhibition of DNMT prevents hypermethylation of the RASSF1A promoter region and consequently restores RASSF1A.

DNMT3b = molecular target: T1, DNMT3b (Homo sapiens, UniProt Q9UBC3); test: Multiphoton laser imaging, DNMT3b antibody staining; type: cell-based; conditions: PC-3 cells, 5 μM
T1 construct: endogenous in cells; host or cells: PC-3 human prostate cancer cells
Procedure: (A) Fluorescent spectrum of compound 6a; (B) PC-3 cells were treated with a 5 μM solution of compound 6a for 1 hr before being fixed and stained with propidium iodide and DNMT3b antibody; (C) Cells were treated with a 5 μM solution of compound 6a for 6 hr before fixation; (D) Cells were treated with a 5 μM solution of DMSO for 6 hr before fixation. The frames in each set of images are from left to right, top to bottom: propidium iodide; clear field; DNA methyltransferase 3b (DNMT3b); compound 6a or vehicle; and merged. Compound 6a was excited at 725 nm with a multiphoton laser and imaged with a 500-550 nm filter. Arrows indicate representative cells in which DNMT3b is solely in the cytoplasm.
Multiphoton laser imaging. After incubating slides with a fibronectin/cortactin solution for 30 minutes, PC-3 cells were plated onto the slides and incubated overnight. The cells were then treated with a 5 μM solution of compound 6a or DMSO control and incubated for 1-6 hour before washing with PBS. The slides were fixed with a 4% formaldehyde solution, washed with PBS then treated with propidium iodide (nuclear localization) and DNMT3a or DNMT3b. The compound was excited at 725 nm with a multiphoton laser and imaged with a 500-550 nm filter.
The dansyl moiety present in compound 6a allows it to visibly fluoresce at 552 nm when excited at 370 nm (FIG. 4A). […]

Structure (SMILES): COc1ccc2c(c1)[nH]c1c(C)c(OS(=O)(=O)c3cccc4c(N(C)C)cccc34)ccc12 [Compound 6a, 7-Methoxy-1-methyl-9H-carbazol-2-yl 5-(dimethylamino)naphthalene-1-sulfonate]
- cyclin D1 mRNA level versus control (cyclin D1): corresponding decrease in cyclin D1
- RASSF1A mRNA level versus control (RASSF1A): significant increase in RASSF1A
- DNMT activity versus DMSO control [1]: most potent inhibition
- DNMT3b localization (DNMT3b; one hour): a population of treated cells that have DNMT3b only in the cytoplasm
- DNMT3b localization (DNMT3b; six hours): majority of treated cells having DNMT3b only in the cytoplasm
